Reference: patent US5760036A, “Aminediol protease inhibitors” (E. R. Squibb & Sons, Inc., priority 1995, dated 1998)
Like-named read-outs stand apart in the source and are kept apart here.

How the values were obtained:
HIV protease = biological target: T1, HIV protease (Human immunodeficiency virus type 1 group M subtype B, UniProt P04585); experiment: HIV Protease Assay; type: biochemical
T1 construct: and purified protease
How it was run: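 Purified protease cleaved 450 μM octapeptide substrate in 50 mM sodium acetate pH 5.5 with 100 μg/ml BSA for 30 minutes at 37° C; product analyzed by reverse-phase HPLC at UV220 after H3PO4 quench. Inhibitors tested at final 10 μM with 4% DMSO.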

[1] = test system: RF strain of HIV (CEM-SS cells); experiment: Cell Culture Anti-HIV Activity (cell viability, formazan); type: cell-based; settings: Human immunodeficiency virus 1, CEM-SS, 144 h, CEM-SS cells, RF strain of HIV, multiplicity of infection 0.04, 6 days at 37° C., 450 nm; read-out: HIV (CEM Cells) IC50
Protocol: The antiviral activity of aminediol inhibitors of the present invention was evaluated by a microculture method which determines the increase in cell viability of an infected culture when a drug is added. The assay depends on the metabolic reduction of tetrazolium reagent by viable cells to yield a soluble colored formazan product.
The assay was performed as follows: suspensions of CEM-SS cells (5000/well) were infected with the RF strain of HIV at a multiplicity of infection at 0.04 in a 96-well plate. The compounds of the present invention listed in the following Table 1, serially diluted in half-log fashion, were added to the infected and uninfected control cells. Untreated (infected and uninfected) cells were included as controls. Following incubation for 6 days at 37° C., viable cells in each well were quantitated by the visible light absorbance at 450 nm.
The IC50 was calculated as the concentration of drug that increased the formazan production in virally infected cells to 50% of that produced by uninfected cells in the absence of drug.

[2] = pH 5.5, 10 μM inhibitor, 4% DMSO, 450 μM substrate, pH 5.5, 30 minutes at 37° C., RP-HPLC, read-out: HIV Protease % Inhibition at 10 μM

Structure (SMILES)	inhibition at 10 µM (HIV protease; [2])	IC50 [1]	HIV Protease % Inhibition at 10 μM (HIV protease; 10 μM inhibitor, 4% DMSO, 450 μM substrate, pH 5.5, 30 minutes at 37° C., RP-HPLC)	inhibition at 10 µM (HIV protease; pH 5.5, read-out: HIV Protease % Inhibition at 10 μM)
CC(C)[C@H](NC(=O)OC1CCc2ccccc21)C(=O)N[C@@H](Cc1ccccc1)[C@H](O)CNC[C@@H](O)[C@H](Cc1ccccc1)NC(=O)OC(C)(C)C (stereo partly drawn) [Compound 67, [S-[1R*,2S*(2S*,3R*)]]-N^2-[[2,3-Dihydro-1H-inden-1-yl)oxy]carbonyl]-N-[3-[[3-[[(1,1-dimethylethoxy)carbonyl]amino]-2-hydroxy-4-phenylbutyl]amino]-2-hydroxy-1-(phenylmethyl)propyl]-L-valinamide]	100%	40 nM	–	–
CC(C)(C)OC(=O)N[C@@H](Cc1ccccc1)[C@H](O)CNC[C@@H](O)[C@H](Cc1ccc(OCCCc2nc3ccccc3o2)cc1)NC(=O)OC(C)(C)C [Compound 244, [1S-[1R*,2S*(2S*,3R*)]]-[3-[[3-[[(1,1-Dimethylethoxy)carbonyl]amino]-2-hydroxy-4-[4-[3-[(2-benzoxazolyl)-propoxy]phenyl]butyl]amino]-2-hydroxy-1-(phenylmethyl)propyl]carbamic acid, 1,1-dimethylethyl ester]	100%	1500 nM	–	–
CC(C)[C@H](NC(=O)CO)C(=O)N[C@@H](Cc1ccccc1)[C@H](O)CNC[C@@H](O)[C@H](Cc1ccccc1)NC(=O)OC(C)(C)C (relative stereo) [Compound 259, [1R*, 2S* (2S*, 3R*)]-N-[3-[[3-[[(1,1-Dimethylethoxy)carbonyl]amino]-2-hydroxy-4-phenylbutyl]amino]-2-hydroxy-1-(phenylmetyl)propyl]-N^2-(hydroxyacetyl)-L-valinamide]	99%	5000 nM	–	–
CC(C)[C@H](NC(=O)OCCO)C(=O)N[C@@H](Cc1ccccc1)[C@H](O)CNC[C@@H](O)[C@H](Cc1ccccc1)NC(=O)OC(C)(C)C (relative stereo) [Compound 218, [1R*,2S*(2S*,3R*)]-N-[3-[[3-[[(1,1-Dimethylethoxy)carbonyl]amino]-2-hydroxy-4-phenylbutyl]amino]-2-hydroxy-1-(phenylmethyl)propyl]-N^2-[(2-hydroxyethoxy)carbonyl]-L-valinamide]	96%	1100 nM	–	–
CC(C)(C)OC(=O)N[C@@H](Cc1ccccc1)[C@H](O)CNC[C@@H](O)[C@H](Cc1ccccc1)NC(=O)C(CCO)C(C)(C)C (single isomer, unassigned; isomer a) [Compound 312, [1S-[1R*, 2S* (2S*, 3R*)]]-[3-[[3-[[2-(1,1-Dimethylethyl)-4-hydroxy-1-oxobutyl]amino]-2-hydroxy-4-phenylbutyl]amino]-2-hydroxy-1-(phenylmethyl)propyl]carbamic acid, 1,1-dimethylethyl ester, isomer A]	–	3500 nM	95%	–
CNC(=O)C(C(=O)N[C@@H](Cc1ccccc1)[C@H](O)CNC[C@@H](O)[C@H](Cc1ccccc1)NC(=O)OC(C)(C)C)C(C)(C)C (stereo partly drawn) [Compound 354, [1S-[1R*,2S*(2S*,3R*)]]-[3-[[3-[[3,3-Dimethyl-2-[(methylamino)carbonyl]-1-oxobutyl]amino]-2-hydroxy-4-phenylbutyl]amino]-2-hydroxy-1-(phenylmethyl)propyl]carbamic acid, 1,1-dimethylethyl ester]	99%	120 nM	–	–
C[C@@H](O)C(C)(C)OC(=O)N[C@@H](Cc1ccccc1)[C@H](O)CNC[C@@H](O)[C@H](Cc1ccccc1)NC(=O)OC(C)(C)C [Compound 275, [1S-[1R*,2S*),(S*)]-[Iminobis [2-hydroxy-1-(phenylmethyl)-3,1-propanediyl]]biscarbamic acid, 1,1-dimethylethyl 2-hydroxy-1,1-dimethylpropyl ester]	95%	450 nM	–	–
CC(C)(C)OC(=O)N[C@@H](Cc1ccccc1)[C@H](O)CNC[C@@H](O)[C@H](Cc1ccc(OCC(=O)O)cc1)NC(=O)OC(C)(C)C [Compound 346, [1S-[1R*,2S*(2S*,3R*)]-[4-[4-(Carboxymethoxy)phenyl)-3-[[3-[[1,1-dimethylethoxy)carbonyl]amino]-2-hydroxy-1-(phenylmeyhyl)propyl)carbamic acid, 1, 1dimethylethyl ester]	98%	> 50000 nM	–	–
CC(C)(C)OC(=O)N[C@@H](Cc1ccccc1)[C@H](O)CNC[C@@H](O)[C@H](CC1CCCCC1)NC(=O)OC(C)(C)C [Compound 15, [1S-[1R*,2S*(2S*,3R*)]]-[3-[[4-Cyclohexyl-3-[[(1,1-dimethylethoxy)carbonyl]-amino]-2-hydroxybutyl]amino-2-hydroxy-1-(phenylmethyl)propyl]carbamic acid, 1,1-dimethylethyl ester]	98%	380 nM	–	–
CC(C)[C@H](NC(=O)CNC(=O)OC(C)(C)C)C(=O)N[C@@H](Cc1ccccc1)[C@H](O)CNC[C@@H](O)[C@H](Cc1ccccc1)NC(=O)[C@@H](NC(=O)CNC(=O)OC(C)(C)C)C(C)C [Compound 99, [S-(1R*,2S*)]-N,N'-[Iminobis[2-hydroxy-1-(phenylmethyl)-3,1-propanediyl]]bis [N^2-[[[1,1-dimethylethoxy)carbonyl]-amino]acetyl]-L-valinamide]]	99%	> 100000 nM	–	–
CC(C)[C@H](NC(=O)OCc1ccc(-c2ccccc2)cc1)C(=O)N[C@@H](Cc1ccccc1)[C@H](O)CNC[C@@H](O)[C@H](Cc1ccccc1)NC(=O)OC(C)(C)C [Compound 68, [S-[1R*,2S*(2S*,3R*)]]-N^2-[([1,1-Biphenyl]-4-ylmethoxy]carbonyl-N-[3-[[3-[[(1,1-dimethylethoxy)carbonyl]amino]-2-hydroxy-4-phenylbutyl]amino]-2-hydroxy-l-(phenylmethyl)[propyl]-L-valinamide]	99%	110 nM	–	–
CC(C)(C)OC(=O)N[C@@H](Cc1ccccc1)[C@H](O)CNC[C@@H](O)[C@H](Cc1ccccc1)NC(=O)OC1CCS(=O)(=O)C1 (stereo partly drawn) [Compound 360, [1S-(1R*,2S*)]-[Iminobis[2-hydroxy-1-(phenylmethyl)-3,1-propanediyl)]bis[carbamic acid], 1,1-dimethylethyl tetrahydro-1,1-dioxo-3-thienyl ester]	96%	450 nM	–	–
CC(C)(C)OC(=O)N[C@@H](Cc1ccccc1)[C@@H](O)CNCC(O)[C@@H](Cc1ccccc1)NC(=O)OC(C)(C)C (stereo partly drawn) [Compound 27, [1S-[1R*,2R*(3S*)]]-[3-[[3-[[(1,1-Dimethylethoxy)carbonyl]amino]-2-hydroxy-4-phenylbutyl]amino]-2-hydroxy-1-(phenylmethyl)propyl]-carbamic acid 1,1-dimethylethyl ester]	19%	–	–	–
CNC(=O)C(O)(C(=O)N[C@@H](Cc1ccccc1)[C@H](O)CNC[C@@H](O)[C@H](Cc1ccccc1)NC(=O)OC(C)(C)C)C(C)(C)C (single isomer, unassigned; isomer a) [Compound 384, [1S-[1R*,2S*(2S*, 3R*)]]-[3-[[3-[[2-Hydroxy-3,3-dimethyl-2-[(methylamino)carbonyl]-1-oxobutyl]amino]-2-hydroxy-4-phenylbutyl]amino]-2-hydroxy-1-(phenylmethyl)propyl]carbamic acid, 1,1-dimethylethyl ester, isomer A]	99%	–	–	–
CC(C)(C)CCN[C@@H](Cc1ccccc1)[C@H](O)CNC[C@@H](O)[C@H](Cc1ccccc1)NC(=O)OC(C)(C)C [Compound 127, [1S-[1R*,2S*(2S*,3R*)]]-[3-[[3-[(3,3-Dimethylbutyl)amino]-2-hydroxy-4-phenylbutyl]amino]-2-hydroxy-1-(phenylmethyl)propyl]carbamic acid, 1,1-dimethylethyl ester]	15%	–	–	–
CN(C)C(=O)OCCOc1ccc(C[C@H](NC(=O)OC(C)(C)C)[C@H](O)CNC[C@@H](O)[C@H](Cc2ccccc2)NC(=O)OC(C)(C)C)cc1 [Compound 372, [1S-[1R*,2S*(2S*, 3R*)[[-]3-]]4-]4-[2-[[(Dimethylamino)carbonyl]oxy]ethoxyl]phenyl]-3-[[(1,1-dimethylethoxy)carbonyl]amino]-2-hydroxybutyl]amino]-2-hydroxy-1-(phenylmethyl) propyl]carbamic acid]	–	–	–	98%
CC(C)(C)OC(=O)N[C@@H](Cc1ccccc1)[C@H](O)CNC[C@@H](O)[C@H](Cc1ccccc1)NC(=O)OC[C@H](O)CO [Compound 231, [1S-(1R*,2S*),(S*)]-[Iminobis[2-hydroxy-1-(phenylmethyl)-3,1-propanediyl]]biscarbamic acid, 2,3-dihydroxypropyl 1,1-dimethylethyl ester]	83%	–	–	–
CC(C)(C)OC(=O)N[C@@H](Cc1ccccc1)[C@H](O)CNC[C@@H](O)[C@H](Cc1ccccc1)NC(=O)C(C)(C)CO [Compound 279, [1S-[1R*,2S*(2S*,3R*)]]-[2-Hydroxy-3-[[2-hydroxy-3-[[2-(hydroxymethyl)-2-methyl-1-oxopropyl]amino]-4-phenylbutyl]amino]-1-(phenylmethyl)propyl]carbamic acid, 1,1-dimethylethyl ester]	54%	–	–	–
